Here are results for 15 molecules from ChEMBL document CHEMBL1139625, “Synthesis and binding affinity of novel 3-aminoethyl-1-tetralones, potential atypical antipsychotics” (Bioorg Med Chem Lett, 2005).

Assay [1] can be described thus: Inhibitory constant towards 5-hydroxytryptamine 2A receptor (5-HT2A).
Assay [2] can be described thus: Inhibitory constant towards dopamine D2 receptor was determined.
Assay [3] in a line: Inhibitory constant towards 5-hydroxytryptamine 2C receptor (5-HT2C).
The nature of assay [4]: Ratio of inhibitory constant for 5-hydroxytryptamine 2A receptor to that of dopamine receptor D2.

Bounds are passed on as bounds.

Take `COc1ccc2c(c1)C(=O)CC(CCN1CCN(c3ccccn3)CC1)C2` (centres undefined): the “Log Ki” value is recorded as -6.33 in assay [1], less than -5 in assay [2] and -5.81 in assay [3].

Take `COc1ccc2c(c1)CC(CN1CCC(c3noc4cc(F)ccc34)CC1)CC2=O` (centres undefined): the “Log Ki” value is given as -7.34 in assay [1] and -5.79 in assay [3]. Further, the Ratio in assay [4] turned out to be 1.16.

In the case of `COc1ccccc1N1CCN(CCC2CC(=O)c3ccccc3C2)CC1` (centres undefined), the “Log Ki” value was -6.59 in assay [1], -6.97 in assay [2] and -6.35 in assay [3]. Besides, the Ratio in assay [4] came to 0.95.

As to `COc1ccc2c(c1)C(=O)CC(CCN1CCC(c3noc4cc(F)ccc34)CC1)C2` (centres undefined), the “Log Ki” value is recorded as -8.23 in assay [1], -7.04 in assay [2] and -6.89 in assay [3]. Also, the Ratio in assay [4] is 1.17.

Take `COc1ccc2c(c1)C(=O)CC(CCN1CCC3(CC1)NCNC3=O)C2` (centres undefined): the “Log Ki” value in assay [1], in assay [2] and in assay [3] was less than -5 each time.

As to `O=C1CC(CCN2CCC(c3noc4cc(F)ccc34)CC2)Cc2ccccc21` (centres undefined), the “Log Ki” value in assay [1] is reported as -8.29; in assay [2] it was -5.98; in assay [3], -7.06. Moreover, the Ratio in assay [4] amounted to 1.38.

With `COc1ccc2c(c1)C(=O)CC(CCN1CCN(c3ccccc3OC)CC1)C2` (centres undefined), the “Log Ki” value is given as -6.65 in assay [1], -6.55 in assay [2] and -5.72 in assay [3]. In addition, the Ratio in assay [4] stood at 1.01.

Take `COc1cc2c(cc1OC)C(=O)CC(CN1CCC(c3noc4cc(F)ccc34)CC1)C2` (centres undefined): the “Log Ki” value in assay [1] is given as -8.02. In addition, the Ratio in assay [4] was determined as 1.18.

Consider `O=C(CCCN1CCC(O)(c2ccc(Cl)cc2)CC1)c1ccc(F)cc1` [HALOPERIDOL], for which the “Log Ki” value in assay [2] is -9.22.

On to `O=C1CC(CCN2CCN(c3ccccn3)CC2)Cc2ccccc21` (centres undefined), for which the “Log Ki” value in assay [1] is on record as -6.54; in assay [2] it was less than -5; in assay [3] it was less than -5.

For the molecule `O=C1CC(CCN2CCC3(CC2)NCNC3=O)Cc2ccccc21` (centres undefined), the “Log Ki” value in assay [1], in assay [2] and in assay [3] was less than -5 throughout.

With `O=C1CC(CN2CCC(c3noc4cc(F)ccc34)CC2)Cc2ccccc21` (centres undefined), the results for the “Log Ki” value in assay [1] and in assay [3] were -8.57 and -6.89, respectively. Further, the Ratio in assay [4] came out at 1.18.

In the case of `COc1ccc2c(c1)C(=O)CC(CCN1CCC3(CC1)NC(=O)NC3=O)C2` (centres undefined), the “Log Ki” value is reported as -5.98 in assay [1], less than -5 in assay [2] and -6.9 in assay [3].

With `O=C1NC(=O)C2(CCN(CCC3CC(=O)c4ccccc4C3)CC2)N1` (centres undefined), the “Log Ki” value in assay [1] was -6.15; in assay [2], less than -5; in assay [3] it was -7.05.

For the molecule `CN1CCN(C2=Nc3cc(Cl)ccc3Nc3ccccc32)CC1` [CLOZAPINE], in assay [2], the “Log Ki” value was -6.65.
